# Data reported in paper PMC5618194, “Orally Delivered Scorpion Antimicrobial Peptides Exhibit Activity against Pea Aphid (Acyrthosiphon pisum) and Its Bacterial Symbionts” (Toxins, 2017).
# Read-outs that look alike come from different tables or passages of the source. No end group written: not given here.
# What was measured:
# [1] = system: S. symbiotica CWBI-2.3; test: microbe, parasite or virus in culture; assay type: cell-based, Serratia symbiotica; conditions: broth microdilution (CLSI), 96-well polypropylene plates, 535 medium (Tripticase soy broth), 5 × 10^5 CFU/mL, 18 h, absorbance at 600 nm, two-fold dilutions 500 to 4 µg/mL, lowest concentration causing complete growth inhibition
# Method: S. symbiotica strain CWBI-2.3, the only aphid symbiotic bacterium that can be cultivated in the laboratory, was purchased from the Leibniz Institute DSMZ (Braunschweig, Germany) and cultivated as recommended by the supplier. MICs were determined according to the CLSI guidelines using a broth microdilution assay in 96-well polypropylene microtiter plates. The bacteria were cultivated overnight at 28 °C using 535 medium (Tripticase soy broth) and diluted to 5 × 10^5 CFU/mL in broth. The AMPs were dissolved in water to a concentration of 4 mg/mL and a series of two-fold dilutions was prepared in 535 broths, ranging from 500 to 4 µg/mL. S. symbiotica CWBI-2.3 in an unmodified medium was used as a positive control, and blanks were prepared with medium only or with medium and water (the latter to exclude any possible negative effect of water on the bacteria). The bacteria were incubated for 18 h and the absorbance at 600 nm was recorded every 20 min. The MICs were defined as the lowest concentrations of AMP causing complete bacterial growth inhibition.
# [2] = system: Escherichia coli; conditions: cited from earlier work
# [3] = system: green peach aphid Myzus persicae (Sulzer); parameters: method as in doi:10.1111/j.1439-0418.2006.01117.x; conditions: cited from earlier work
# [4] = system: A. pisum; assay type: in vivo, Acyrthosiphon pisum; conditions: for % Survival: after three days of feeding, 48 h old nymphs, ten per chamber, five replicates, control AP3 diet survival = 90%; for Kaplan-Meier analysis: Mean, Estimate (survival time): three days of feeding, control 2.880, estimation limited to the largest survival time if censored
# Method: (§1) A. pisum nymphs (48 h old) were fed for three days on an artificial AP3 diet in modified chambers. The AP3 diet was mixed with the corresponding AMP or control treatment. Ten nymphs were placed in each chamber and five replicates were included per treatment. AMPs were tested at three different concentrations: 50, 250, and 500 µg/mL. Untreated aphids were fed on the control AP3 diet. Positive control treatments comprised aphids fed on the AP3 diet supplemented with the insecticide imidacloprid (5 µg/mL) or the antibiotic rifampicin (50 µg/mL) (Sigma-Aldrich, Taufkirchen, Germany). Imidacloprid is strongly hydrophobic, and was therefore prepared first as a highly concentrated stock (1000 µg/mL) in acetone and working solutions were diluted in the AP3 diet. The corresponding control (AP3 + acetone) was tested on the aphids, and survival was not affected when compared to AP3 diet alone or AP3 diet diluted with water (data not shown). Mortality was scored after 24, 48, and 72 h of feeding. Aphids that survived the three-day treatment were transferred to agar plates containing bean plant leaves and reared for another two weeks in order to determine the impact of the diets on survival and reproduction.
# All data were analysed using SPSS v17.0 software (SPSS Inc., Chicago, IL, USA) and statistical significance was defined as p < 0.05. For mortality assessment, we used non-parametric survival analysis (Kaplan-Meier) and multiple pairwise comparisons among different groups were carried out using log-rank tests to assess efficiency. The total number of offspring, time to reproduction, and relative numbers of bacterial symbionts were analysed using the Wilcoxon ranked sum test for non-parametric data and a paired t-test for parametric data.
# [5] = system: S. symbiotica; test: FISH localization of symbiont in treated aphid nymphs; assay type: in vivo, Serratia symbiotica in Acyrthosiphon pisum
# Method: (§2) FISH was carried out as previously described, with slight modifications. Treated A. pisum nymphs were fixed for three days in Carnoy’s solution (6:3:1 […]:glacial acetic acid) and then bleached in 6% H2O2 in 96% ethanol for 1 week. After bleaching, samples were washed in 100% ethanol and then hybridized overnight in hybridization buffer (20 mM Tris-HCl pH 8.0, 0.9 M NaCl, 0.01% sodium dodecylsulfate, 30% formamide) containing 100 nM of each fluorescent probe and 500 nM DAPI. After hybridization, samples were rinsed three times with phosphate buffered saline containing 0.3% Triton X-100 and viewed under a Leica TCS SP8 confocal microscope (Leica Microsystems, Wetzlar, Germany). We analysed a minimum of 20 samples from each treatment. The specificity of detection was confirmed using controls with no probe and specimens were pre-treated with RNase.
# [6] = system: B. aphidicola; test: as above; assay type: in vivo, Buchnera aphidicola in Acyrthosiphon pisum; conditions: highest concentration of each AMP, control treatments
# Method: as §2
# [7] = system: A. pisum; test: Aphid reproduction after AMP feeding (time to reproduction, number of offspring); assay type: in vivo, Acyrthosiphon pisum; conditions: 50 µg/mL for three days; surviving aphids followed two weeks
# Method: The effect of each AMP on A. pisum reproduction was determined by counting the number of offspring and recording the delay before reproduction in surviving aphids for two weeks after treatment (Figure 2).
# as §1, with “The corresponding control (AP3 + acetone) was tested on the aphids, and survival was not affected when compared to AP3 diet alone or AP3 diet diluted with water (data not shown).” left out, “Aphids that survived the three-day treatment were transferred to agar plates containing bean plant leaves and reared for another two weeks in order to determine the impact of the diets on survival and reproduction.” left out
# (§3) All data were analysed using SPSS v17.0 software (SPSS Inc., Chicago, IL, USA) and statistical significance was defined as p < 0.05. […] The total number of offspring, time to reproduction, and relative numbers of bacterial symbionts were analysed using the Wilcoxon ranked sum test for non-parametric data and a paired t-test for parametric data.
# [8] = system: B. aphidicola; test: qPCR relative quantification of symbiont in treated aphids; assay type: in vivo, Buchnera aphidicola in Acyrthosiphon pisum; conditions: 50 µg/mL
# Method: (§4) The density of the B. aphidicola and S. symbiotica populations in vivo was determined by qPCR. Genomic DNA was extracted from pools of five aphids, as previously described. Three biological replicates were prepared per treatment. Amplifications were carried out using a StepOnePlus™ Real-Time PCR System (Applied Biosystems, Waltham, MA, USA). The reaction volume was 10 μL, comprising 2 μL of template DNA (25 ng/μL), 10 μM of each specific primer and 5 μL of SYBR Green PCR Master Mix (Applied Biosystems). Each reaction was heated to 95 °C for 10 min, followed by 40 cycles of 95 °C for 15 s and 60 °C for 60 s. Melting curve analysis was performed by increasing the temperature from 60 °C to 95 °C for 15 s, cooling to 60 °C for 60 s and heating to 95 °C for 15 s. […] Relative abundance values for each symbiont were calculated by comparing the threshold cycle (Ct) of each target gene to that of the aphid ribosomal protein L32 gene and efficiencies were calculated using LinReg PCR software.
# as §3
# [9] = system: S. symbiotica; test: as above; assay type: in vivo, Serratia symbiotica in Acyrthosiphon pisum; conditions: 50 µg/mL
# Method: as §4, §3
# [10] = after three days of treatment, compared to control AP3 diet, pools of five aphids, three biological replicates
# [11] = two weeks after treatment, data not shown
molecule,measurement,setting,value
ILSAIWSGIKGLL-NH2 [Uy17],MIC (In Vitro),[1],250 µg/mL
"indolicidin: an AMP from bovine neutrophils (ILPWKWPWWPWRR; ends and bridges not checked; UniProt P33046 131-143, looked up)",activity against Escherichia coli,[2],showed activity
same,activity against Myzus persicae,[3],showed activity
FFSALLSGIKSLF-NH2 [Um4],MIC (In Vitro),[1],>500 µg/mL
GNRPVYIPPPRPPHPRL-NH2 [Apidaecin],MIC (In Vitro),[1],>500 µg/mL
O=[N+]([O-])NC1=NCCN1Cc1ccc(Cl)nc1 [Imidacloprid],% Survival,[4]; 5 µg/mL in AP3 diet,0%
same,"Kaplan-Meier analysis: Mean, Estimate (survival time)",[4]; 5 µg/mL,1.960
same,localization of the S. symbiotica FISH signal,"[5]; 24 and 48 h after exposure, control treatment",did not affect the localization of the bacterial symbionts
same,localization of the B. aphidicola FISH signal,[6]; 48 h after treatment,did not affect the localization of the bacterial symbionts
FLSTIWNGIKGLL-NH2 [Uy192],MIC (In Vitro),[1],500 µg/mL
GFWGKLLEGVKKAI-NH2 [D5],MIC (In Vitro),[1],500 µg/mL
IWSAIWSGIKGLL-NH2 [UyCT5],nymphs killed after the first day,"[4]; in vivo, 48 h, 500 µg/mL",10%
same,MIC (In Vitro),[1],125 µg/mL
GFWGKLWEGVKNAI-NH2 [UyCT1],MIC (In Vitro),[1],125 µg/mL
CO[C@H]1/C=C/O[C@@]2(C)Oc3c(C)c(O)c4c(O)c(c(/C=N/N5CCN(C)CC5)c(O)c4c3C2=O)NC(=O)/C(C)=C\C=C\[C@H](C)[C@H](O)[C@@H](C)[C@@H](O)[C@@H](C)[C@H](OC(C)=O)[C@@H]1C [Rifampicin],survival during the two weeks after treatment,"[4]; 50 µg/mL for three days, survivors monitored for the following two weeks on bean leaves, data not shown",did not affect aphid survival
same,% Survival,[4]; 50 µg/mL in AP3 diet,92.5%
same,"Kaplan-Meier analysis: Mean, Estimate (survival time)",[4]; 50 µg/mL,2.925
same,MIC,"[1]; Serratia symbiotica, CWBI2.3, read-out: MIC (In Vitro)",50 µg/mL
same,number of offspring,[7],hardly any offspring
same,"density of B. aphidicola (qPCR, relative abundance)",[8]; [10],significant reduction
same,density of B. aphidicola (qPCR),[8]; [11],significant reduction
same,"density of S. symbiotica (qPCR, relative abundance)",[9]; [10],significant reduction
same,density of S. symbiotica (qPCR),[9]; [11],significant reduction
same,S. symbiotica FISH signal,"[5]; 48 h after exposure, highest concentration of each AMP, control treatments, minimum of 20 samples per treatment",reduced the S. symbiotica signal
same,intensity of the B. aphidicola FISH signal,"[6]; aphid nymphs, 24 and 48 h after exposure",neither the AMPs nor rifampicin reduced the intensity of the signal
ILSAIWSGIKSLF-NH2 [UyCT3],MIC (In Vitro),[1],125 µg/mL
FPFLLSLIPSAISAIKRL-NH2 [Uy234],MIC (In Vitro),[1],>500 µg/mL
RGFRKHFNKLVKKVKHTISETAHVAKDTAVIAGSGAAVVAAT-NH2 [Stomoxyn],MIC (In Vitro),[1],>500 µg/mL
FPFLKLSLKIPKSAIKSAIKRL-NH2 [D10],MIC (In Vitro),[1],>500 µg/mL
LWGKLWEGVKSLI-NH2 [D3],MIC (In Vitro),[1],250 µg/mL
GFWGKLWEGVKNAIKKK-NH2 [D11],MIC (In Vitro),[1],>500 µg/mL
